Data published in PMC10497945, “Dual-targeting peptides@PMO, a mimetic to the pro-apoptotic protein Smac/DIABLO for selective activation of apoptosis in cancer cells” (Frontiers in Pharmacology, 2023).

Legend:
[1] = tested on: Ht-29 cells; test: Resazurin reduction viability assay; assay type: cell-based, human; details: Ht-29, 1, 5, and 25 µM, 48 h, n = 3
[2] = tested on: HeLa S-3 cells; test: Resazurin reduction viability assay; details: HeLa, 1, 5, and 25 µM, 48 h, n = 3
Protocol: For the resazurin-to-resorufin reduction assays, cells were grown in a 96-well plate for 120 min at 37 °C with resazurin solution (0.15 mg/ml) (Sigma-Aldrich, Milan, Italy). The fluorescence of resorufin was quantified on a PerkinElmer EnSpire 2,300 Multilabel Reader (ex 550 nm/em 590 nm). For the Apo-ONE assay, 25,000 cells were seeded in a 96-well white polystyrene microplate (Corning, United States of America). After 24 h, cells were treated for 36 h with oxaliplatin and oxaliplatin+SS35. Cells were then lysed and subjected to caspase-3/7 (DEVDase) activity assays by using the Apo-ONE Homogeneous Caspase-3/7 Assay (Promega, Madison, United States of America) according to the manufacturer’s instructions. After 30 min of incubation, fluorescence was recorded in the linear phase of the kinetics with a Synergy H1 plate reader (BioTek, Winooski, United States of America). For the trypan blue viability assay, cells were harvested, pelleted at 1500 rcf, and incubated for 5 min with a PBS/0.4% Trypan Blue solution (Gibco). At least 300 cells were counted for each condition.
First, Ht-29 and HeLa cells were treated with increasing doses (0.02, 0.04, and 0.06 μg/ml) of SS28, SS35, and SS36 for 48 h, and cell viability was assessed by resazurin reduction assays (Figure 6A). […]

[3] = Determination of PMO peptide functionalization by absorbance; assay type: physicochemical; details: UV absorbance in ethanol, Phe (257 nm) and Fmoc-Ala (267 nm) calibration curves, PMO baseline subtracted; estimated
Protocol: To quantify the amounts of peptides on the PMO, a Varian Cary 50 bio benchtop spectrophotometer in the range of 200–800 nm with a 1-nm step was used ([Faura et al. 2021]). The calibration curves were determined by preparing five solutions at known concentrations of Phenylalanine and Fmoc-Alanine used as standards. Briefly, a stock solution of 5 mM Phe in absolute ethanol was diluted to the final concentrations of 0.2 mM, 0.5 mM, […], 2 mM, and 5 mM. A standard solution of 52.7 μM Fmoc-Alanine (Ala) in absolute ethanol was diluted to the concentrations of 20 μM, 10 μM, 5 μM, and 2 μM. The fluorescence signals were recorded for Phenylalanine (Phe: λex 240 nm and λem 282 nm) ([Lakowicz, 2006]) and Fmoc-Ala (λex […] and λem 280 nm) ([Pappas et al., 2014]) and plotted against their respective sample concentrations. […]
The absorbance values of peptides linked to PMOs were adjusted to account for potential interference caused by PMOs, which can scatter or absorb light in the visible and UV ranges, leading to inaccuracies in absorbance measurements of chromophores. The absorbance spectrum of PMO was subtracted from the absorbance spectrum of the sample containing the peptide@PMO. In the region of absorption of the chromophore, we observed a linear and well-defined relationship between the absorbance of PMO and wavelength. […]

N=C(N)NCCC[C@@H]1NC(=O)[C@H](CCCCN)NC(=O)[C@@H](Cc2ccccc2)NC(=O)[C@H](CC(=O)O)NC(=O)CNC1=O [p28, cyclic[RGDfK]]
cytotoxicity of free peptide compared with nanoparticle-conjugated peptide [1]: significantly attenuated | cytotoxicity of free peptide compared with nanoparticle-conjugated peptide [2]: significantly attenuated

FmocAVPI@PMO [Fmoc-protected AVPI peptide conjugated to PMO, apparently the precursor of SS36]
Peptide/PMO: peptide amount binding for each milligram of PMO [3]: 0.074 mg
